Data taken from patent publication US20240360114A1 (SIRONAX LTD., priority 2021, published 2024).

test system: HT-1080 cells; assay: HT-1080 cell viability assay (ferroptosis induced by RSL3, Cell Titer-Glo); type: cell-based; settings: Homo sapiens, HT-1080, 20 h, ferroptosis inducer RSL3, 20 hours, ferroptosis inhibitory activity, Table 2
Description: Example 2. Determination of EC50 Values in HT-1080 Cell Viability Assay
HT-1080 (ATCC, CCL-121) cells (6000 in 100 μl) were seeded in 96-well plates (Corning) and cultured in a 37° C. incubator with a humidified atmosphere of 5% CO2 for overnight. Cells were then treated with ferroptosis inducer RSL3 (TargetMol) and a 3-fold, 10-point serial dilution series of compounds with 1.1 μM as the highest concentration, for 20 hours. Cell viability was assessed using the Cell Titer-Glo Kit (Promega). The luminescence intensity was measured with a microplate reader (Envision, PerkinElmer), and cell viability was calculated by normalizing the data to untreated controls. The EC50 values of the compounds (e.g., Compounds 1-573 and 574-661) were calculated in GraphPad Prism (GraphPad Software, Inc., San Diego, CA, USA). The curves were fitted using a non-linear regression model with a sigmoidal dose response.

SMILES | EC50
Cc1cc(N2CC(C)OC(C)C2)c(C)cc1NC[C@H]1CC[C@H](N)CC1 (stereo partly shown) [Compound 453, N-(((1r,4r)-4-aminocyclohexyl)methyl)-4-(2,6-dimethylmorpholino)-2,5-dimethylaniline] | 0.1 to 100 nM
NCC1CCC(Nc2ccc(N3CCC(C(F)(F)F)CC3)nc2)CC1 (stereo not shown) [Compound 21, N-(4-(aminomethyl)cyclohexyl)-6-(4-(trifluoromethyl)piperidin-1-yl)pyridin-3-amine] | 0.1 to 100 nM
CC1CN(c2ccc(NC3C[C@H]4CC(N)C[C@H]4C3)cc2F)CC(C)O1 (stereo partly drawn) [Compound 460, (3aR, 6aS)-N2-(4-(2,6-dimethylmorpholino)-3-fluorophenyl) octahydropentalene-2,5-diamine] | 0.1 to 100 nM
CC1(C)CN(c2ccc(NC[C@H]3CC[C@H](N)CC3)cc2)CC(C)(C)O1 [Compound 445, N-(((1r,4r)-4-aminocyclohexyl)methyl)-4-(2,2,6,6-tetramethylmorpholino)aniline] | 0.1 to 100 nM
CC(C)(C)c1ccc(NC2CCC(N)C2)cc1 (stereo not shown) [Compound 124, N1-(4-(tert-butyl)phenyl)cyclopentane-1,3-diamine] | 100 to 1000 nM
CC(C)C1CCN(c2ncc(NC3C4CC5CC3CC(CN)(C5)C4)cn2)CC1 (stereo not shown) [Compound 370, N-(5-(aminomethyl)adamantan-2-yl)-2-(4-isopropylpiperidin-1-yl)pyrimidin-5-amine] | 0.1 to 100 nM
CN1CCC(Nc2ccc(N3CCC(C(F)(F)F)CC3)cc2)C1 (stereo not shown) [Compound 16, 1-methyl-N-(4-(4-(trifluoromethyl)piperidin-1-yl)phenyl)pyrrolidin-3-amine] | 0.1 to 100 nM
CCCC(CCC)Nc1ccc(C(C)(C)C)cc1 [Compound 188, 4-(tert-butyl)-N-(heptan-4-yl)aniline] | 100 to 1000 nM
COc1cc(NC[C@H]2CC[C@H](N)CC2)ccc1N1C[C@@H](C)O[C@@H](C)C1 [Compound 495, N-(((1r,4R)-4-aminocyclohexyl)methyl)-4-((2S,6R)-2,6-dimethylmorpholino)-3-methoxyaniline] | 100 to 1000 nM
Cc1nc(N2CC(C)OC(C)C2)ccc1NCC12CC3CC(C1)C(N)C(C3)C2 (stereo not shown) [Compound 516A, N-(((1s,4r)-4-aminoadamantan-1-yl)methyl)-6-(2,6-dimethylmorpholino)-2-methylpyridin-3-amine] | 0.1 to 100 nM
Cc1nc(N2CC3(CCOCC3)C2)ccc1NC1CC2(CC(N)C2)C1 (stereo not shown) [Compound 494, N2-(2-methyl-6-(7-oxa-2-azaspiro[3.5]nonan-2-yl)pyridin-3-yl)spiro[3.3]heptane-2,6-diamine] | 100 to 1000 nM
c1cc(C2CCCCC2)ccc1NC1CCNC1 (stereo not shown) [Compound 108, N-(4-cyclohexylphenyl)pyrrolidin-3-amine] | 100 to 1000 nM
NC1CC2(C1)CC(Nc1ccc(N3CCC(C(F)(F)F)CC3)nc1)C2 (stereo not shown) [Compound 397, N2-(6-(4-(trifluoromethyl)piperidin-1-yl)pyridin-3-yl)spiro[3.3]heptane-2,6-diamine] | 0.1 to 100 nM
O=C1CC(C(=O)NC2CC3(C2)CC(Nc2ccc(N4CCC(C(F)(F)F)CC4)cc2)C3)CN1 (stereo not shown) [Compound 375] | 0.1 to 100 nM
NC1CC2(C1)CC(Nc1ccc(N3CCC(C(F)(F)F)CC3)cc1)C2 (stereo not shown) [Compound 357, N2-(4-(4-(trifluoromethyl)piperidin-1-yl)phenyl)spiro[3.3]heptane-2,6-diamine] | 0.1 to 100 nM
CC(C)C1CCN(c2ncc(NC3C[C@H]4CC(N)C[C@H]4C3)cn2)CC1 (stereo partly drawn) [Compound 362, (3aR, 6aS)-N2-(2-(4-isopropylpiperidin-1-yl)pyrimidin-5-yl) octahydropentalene-2,5-diamine] | 0.1 to 100 nM

SMILES | EC50
CC1(C)CN(c2ncc(NC3CCC(N)CC3)cn2)C1 (stereo not shown) [Compound 33A, N1-(2-(3,3-dimethylazetidin-1-yl)pyrimidin-5-yl)cyclohexane-1,4-diamine] | 1000 to 10000 nM
Cc1nc(N2CC(C)OC(C)C2)ccc1NCCCC1CCC(N)CC1 (stereo not shown) [Compound 526, N-(3-((1r,4s)-4-aminocyclohexyl)propyl)-6-(2,6-dimethylmorpholino)-2-methyl pyridin-3-amine] | 0.1 to 100 nM
CC(C)Oc1ccc(NC[C@H]2CC[C@H](N)CC2)cc1 [Compound 353, N-(((1r,4r)-4-aminocyclohexyl)methyl)-4-isopropoxyaniline] | 0.1 to 100 nM
CC1(C)CCC(c2ccc(NCCCN)cc2)CC1 [Compound 209, 1-N-(4-(4,4-dimethylcyclohexyl)phenyl)propane-1,3-diamine] | 0.1 to 100 nM
CC1CN(c2ccc(NC[C@H]3CC[C@H](N)CC3)cc2)CC(C)N1C (stereo partly shown) [Compound 525, N-(((1r,4r)-4-aminocyclohexyl)methyl)-4-(3,4,5-trimethylpiperazin-1-yl)aniline] | 100 to 1000 nM
CC(C)(C)c1ccc(NC2CCC(N)CC2)c(F)c1 (stereo not shown) [Compound 190, N1-(4-(tert-butyl)-2-fluorophenyl)cyclohexane-1,4-diamine] | 100 to 1000 nM
NC1CCC(Nc2ccncc2)CC1 (stereo not shown) [Compound 199, N1-(pyridin-4-yl)cyclohexane-1,4-diamine] | 1000 to 10000 nM
CC1CCN(c2ncc(NC[C@H]3CC[C@H](N)CC3)cc2C(F)(F)F)CC1 [Compound 396, N-(((1r,4r)-4-aminocyclohexyl)methyl)-6-(4-methylpiperidin-1-yl)-5-(trifluoromethyl)pyridin-3-amine] | 0.1 to 100 nM
CC1(C)CCC(c2ccc(NC3CCC(CO)CC3)cc2)CC1 (stereo not shown) [Compound 90] | 0.1 to 100 nM
N[C@H]1CC[C@H](CNc2ccc(N3CC4CCC(C3)O4)c(F)c2)CC1 [Compound 472, N-(((1r,4r)-4-aminocyclohexyl)methyl)-4-(8-oxa-3-azabicyclo[3.2.1]octan-3-yl)-3-fluoroaniline] | 0.1 to 100 nM
CC(C)C1CCN(c2ncc(NC3CC4(CC(N)C4)C3)cn2)CC1 (stereo not shown) [Compound 358, N2-(2-(4-isopropylpiperidin-1-yl)pyrimidin-5-yl)spiro[3.3]heptane-2,6-diamine] | 0.1 to 100 nM
CC1(C)CCc2cc(NC3CCC(N)CC3)ccc21 (stereo not shown) [Compound 330A, N1-(1,1-dimethyl-2,3-dihydro-1H-inden-5-yl)cyclohexane-1,4-diamine] | 0.1 to 100 nM
CCC(C)(C)c1ccc(NC2CCC(N)C2)cc1 (stereo not shown) [Compound 272, N^1-(4-(tert-pentyl)phenyl)cyclopentane-1,3-diamine] | 0.1 to 100 nM
CC(C)(C)c1ccc(NC2C3CC4CC2CC(CN)(C4)C3)cc1 (stereo not shown) [Compound 98, 5-(aminomethyl)-N-(4-(tert-butyl)phenyl)adamantan-2-amine] | 0.1 to 100 nM
CC(C)C1CCN(c2ncc(NCC[C@H]3CC[C@H](NC(N)=O)CC3)cn2)CC1 [Compound 429, 1-((1r,4r)-4-(2-((2-(4-isopropylpiperidin-1-yl)pyrimidin-5-yl)amino)ethyl)cyclohexyl)urea] | 0.1 to 100 nM

same assay, conditions: Homo sapiens, HT-1080, 20 h, ferroptosis inducer RSL3, 20 hours, ferroptosis inhibitory activity, Table 3

SMILES | EC50
Cc1nc(N2CC(C)OC(C(F)(F)F)C2)ccc1NC1CC2(CC(N)C2)C1 (stereo not shown) [Compound 588] | 0.1 to 100 nM
CC1CN(c2ccc(NC3CC(N)C3)cc2F)CC(C)N1CC(F)(F)F (stereo not shown) [Compound 604, N1-(4-(3,5-dimethyl-4-(2,2,2-trifluoroethyl)piperazin-1-yl)-3-fluorophenyl)cyclobutane-1,3-diamine] | 0.1 to 100 nM

same assay, conditions: ferroptosis inducer RSL3, 20 hours, ferroptosis inhibitory activity, Table 2

SMILES | EC50
CC1(C)CCC(c2ccc(NC3CCC(C(N)=O)CC3)cc2)CC1 (single isomer, unassigned) [Compound 159B, 4-((4-(4,4-dimethylcyclohexyl)phenyl)amino)cyclohexane-1-carboxamide] | 100 to 1000 nM
